# According to ChEMBL document CHEMBL5325435, “Optimization of an α-aminonaphthylmethylphosphonic acid inhibitor of purple acid phosphatase using rational structure-based design approaches” (Eur J Med Chem, 2023):
# Assay: Competitive inhibition of pig uterine fluid fully reduced PAP using p-NPP as substrate measured at 4.9 by UV-Vis spectrophotometric analysis
# Type: tissue-based, Sus scrofa
row,SMILES,Ki [nM]
1,CCCCCCCCCCCC(=O)NC(c1ccc(OC)cc1)P(=O)(O)O (racemic),3000
2,CCCCCCCCCCCC(=O)NC(c1ccccc1)P(=O)(O)O (racemic),31000
3,CCCCCCCCOCC(=O)NC(c1ccccc1)P(=O)(O)O (racemic),56000
4,CCCCCCCCCCCCCC(=O)NC(c1ccc(OCC)cc1)P(=O)(O)O (racemic),3000
5,CCCCCCCCCCCCCCCC(=O)NC(c1ccc(OCC)cc1)P(=O)(O)O (racemic),610
6,CCCCCCCCCCCCCCCCCC(=O)NC(c1ccc(OCC)cc1)P(=O)(O)O (racemic),6000
7,CCCCCCCCCC(=O)NC(c1ccccc1)P(=O)(O)O (racemic),19000

# Now those with a lower Ki, led by results:
row,Ki [nM],SMILES
1,340,CCCCCCCCCCCCCCCC(=O)NC(c1ccc(OC)cc1)P(=O)(O)O (racemic)
2,400,CCCCCCCCCCCCCC(=O)NC(c1ccc(OC)cc1)P(=O)(O)O (racemic)
3,320,CCCCCCCCCCCCCC(=O)NC(c1ccccc1)P(=O)(O)O (racemic)
4,168,CCCCCCCCCCCCCCCCCC(=O)NC(c1ccccc1)P(=O)(O)O (racemic)
5,270,CCCCCCCCCCCCCCCCOCC(=O)NC(c1ccc(OC)cc1)P(=O)(O)O (racemic)
6,550,CCCCCCCCCCCCCCCCOCC(=O)NC(c1ccccc1)P(=O)(O)O (racemic)
7,186,CCCCCCCCCCCCCCCCCC(=O)NC(c1ccc(OC)cc1)P(=O)(O)O (racemic)
8,320,CCCCCCCCCCCCCCCC(=O)NC(c1ccccc1)P(=O)(O)O (racemic)
